# Tested on: HMGB1 secretion
# Test: HMGB1 secretion into supernatant of TBZ-treated THP-1 cells, Western blotting
# Type: cell-based, human
# Details: APO 1, 5, 20, 80, or 320 μM for 8 hours, vs TBZ only-treated group, FIG. 4
# Description: Cells were treated with a drug candidate and then collected using centrifugation at 4° C. and 1,500×g for 5 minutes. A supernatant was centrifuged again at 4° C. and 1,500×g for 5 minutes to remove remaining debris, concentrated at 4° C. and 14,000×g for 30 minutes using Amicon ultra-0.5 centrifugal filter unit 10K (Millipore, UFC501096), and stored. The collected cells were lysed using 1× radioimmunoprecipitation assay (RIPA) buffer (GenDEPOT, R4100-010) containing a 1× protease inhibitor (GenDEPOT, P3100-001) and a phosphatase inhibitor (Thermo Fisher Scientific, 1862495). Subsequently, the cell lysate was centrifuged at 4° C. and 20,000×g for 30 minutes to remove debris. The extracted protein concentration was measured using a bicinchoninic acid (BCA) protein assay kit (Thermo Fisher Scientific, 23225). […]
# To test whether secretion of HMGB1, a representative damage-associated molecular pattern, which is one of the characteristics of necroptosis, is inhibited by treating THP-1 cells with necroptosis induced by TBZ treatment with APO, after concentration-dependent treatment (1, 5, 20, 80, or 320 μM) with APO for 8 hours, all of the supernatant was concentrated, analyzed by SDS-PAGE, and investigated with an HMGB1 antibody (Experimental Method 1-6). […]
structure (smiles),measurement,value
"CN1CCc2cccc3c2[C@H]1Cc1ccc(O)c(O)c1-3 [APO, apomorphine]",amount of HMGB1 secreted into the supernatant,decreased
